Experimental data reported in patent US20240058403A1, “YEAST PARTICLES FOR DELIVERY OF WATER-ACTIVATED SELF-EMULSIFYING CANNABINOID FORMULATIONS” (UNIVERSITY OF MASSACHUSETTS, priority 2022, published 2024).
Entries after “also recorded” stand apart in the source; their conditions may differ. Read-outs that look alike come from different tables or passages of the source.

Key:
[1] = Stability of CBD-SA-RA o/w emulsions; type: physicochemical; conditions: for Stable CBD-OA-RA o/w emulsion: 1 mg/mL in water by sonication, room temperature for 30 minutes, precipitate/phase partitioning = unstable; for Stable CBD o/w emulsion: 1 mg/mL in water, room temperature 30 minutes
[2] = hydrophilic-lipophilic balance; cited from earlier work
[3] = Maximum solubility of surfactants in OA or UDA; type: physicochemical
[4] = Fast release of cannabinoids from GLPs embedded in adjuvant, simulated saliva with or without tissue, 1 minute; type: physicochemical; conditions: for cannabinoid release from GLP in 1 minute: cannabinoid loaded alone, no release agent; for THC released in 1 minute: 37° C.
Method: Composition of simulated saliva was 0.72 g/L potassium chloride, 0.22 g/L calcium chloride dihydrate, 0.68 g/L potassium phosphate monobasic, 0.866 g/L sodium phosphate dibasic, 1.5 g/L potassium bicarbonate, 0.06 g/L potassium thiocyanate, and 0.03 g/L citric acid. Samples of dry GLP-THC (4 mg) were resuspended in 1 mL of (A) water, (B) dry glycerin or (C) SEDDS mixture (3.3 mg/mL lecithin in 3% MCT in glycerin). The GLP THC suspensions were diluted with simulated saliva (25% simulated saliva+75% GLP THC in solvent mixture) with and without the addition of a sample of 75-100 mg fat tissue. The samples were incubated for 1 minute at 37° C., and then the fractions were separated to quantify THC in the GLP pellet (THC not released), THC in supernatant (released) and THC in the tissue (released from GLP and absorbed by the tissue). The THC absorbed in the tissue was extracted in 100% methanol and the THC remaining in GLPs was extracted in 80% ethanol-20% water. The THC in all fractions was quantified by HPLC.
GLPs were loaded with a THC:GLP weight ratio of 1:1 and embedded in different solvents. THC release was achieved and quantified as described before (FIG. 9).
GLPs were loaded with a THC and undecanoic acid as a release agent (RA). Loaded GLPs were embedded in adjuvants (water, glycerin or SEDDS mixture). THC release was achieved and quantified as described before (FIG. 9).
GLPs were loaded with a CBD, CBN or CBG and octanoic acid as a RA. Loaded GLPs were embedded in adjuvant water or SEDDS mixture. Cannabinoid release was achieved and quantified as described before for THC (FIG. 9).

[5] = Sustained CBD release from GLPs with sequestering/release agents in simulated saliva; type: physicochemical
Method: GLPs were loaded at a weight ratio of CBD:OA:GLP of 2:1:1. […] Aliquots (200 μL) were collected at 1, 3, 6 and 24 h and the samples were centrifuged to separate supernatant (released CBD fraction) and GLP pellet. Released CBD was quantified in the supernatants by HPLC as described before.
The effect of addition of RAs to CBD with OA as SA was tested.
GLPs were loaded with CBD, OA and various RAs. Release assays were performed by the procedure described as before.
[…] Aliquots (200 μL) were collected at 1, 3, 6 and 24 h and the samples were centrifuged to separate supernatant (released CBD fraction) and GLP pellet. Released CBD was quantified in the supernatants by HPLC as described before.

[6] = Release of oleamide from GLPs in simulated saliva with or without tissue; type: physicochemical
Method: The release of oleamide encapsulated in GLPs using octanoic acid or undecanoic acid as loading solvent or as leave-in solvent was tested. To perform the release assay, the GLP-oleamide suspensions were diluted with simulated saliva (25% simulated saliva+75% GLP in solvent mixture) with and without the addition of a sample of 75-100 mg fat tissue. […], and then the fractions were separated to quantify oleamide in the GLP pellet (unreleased oleamide), oleamide in the supernatant (released) and oleamide in the tissue (released from GLP and absorbed by the tissue). The oleamide absorbed in the tissue was extracted in 100% methanol and the oleamide remaining in GLPs was extracted in 80% ethanol-20% water. The oleamide in all fractions was quantified by HPLC. […] Oleamide was released at a low efficiency (2%) from GLPs with simulated saliva and higher efficiency (34-40%) with simulated saliva and tissue. The addition of UA as the leave-in solvent increased OA release from 34% to 46% in 5 minutes and from 40% to 58% with simulated saliva and tissue

H. pylori = conditions: cited from earlier work
S. cerevisiae = conditions: by enhancing potassium leakage and disrupting membrane fluidity; cited from earlier work
C. albicans = conditions: by enhancing potassium leakage and disrupting membrane fluidity; cited from earlier work
[7] = Micelle size of CBD-SA-RA emulsions; type: physicochemical
[8] = Sustained THC release from GLP-THC-UDA with or without RA in simulated saliva + tissue; type: physicochemical; conditions: simulated saliva + tissue at 37° C.; 1 to 24 h
Method: GLPs were loaded at a weight ratio of CBD:OA:GLP of 2:1:1. Dry GLP-CBD (5 mg) were resuspended in 1 mL of simulated saliva, a 75-100 mg piece of simulated tissue was added to the sample and incubated at 37° C. with constant mixing. Aliquots (200 μL) were collected at 1, 3, 6 and 24 h and the samples were centrifuged to separate supernatant (released CBD fraction) and GLP pellet. Released CBD was quantified in the supernatants by HPLC as described before.
The effect of addition of RAs to THC with UDA as SA was tested. Release assays were performed as described as before.

[9] = Physical state of THC-UDA-RA mixture at room temperature; type: physicochemical
Method: Various RAs were tested as described before for their ability to stabilize micelles formed when GLPs encapsulate THC as the payload and UDA as the SA.

[10] = CBD-SA-RA emulsion, RA TRITON X100 20 % w/w

TWEEN 20
Stable CBD-OA-RA o/w emulsion [1]: No | HLB [2]: 16.7 | Maximum solubility in OA [3]: 20% w/w

CCCCCc1cc(O)c2c(c1)OC(C)(C)c1ccc(C)cc1-2 [CBN, cannabinol]
cannabinoid release from GLP in 1 minute [4]: do not release efficiently

C=C(C)[C@@H]1CCC(C)=C[C@H]1c1c(O)cc(CCCCC)cc1O [CBD, cannabidiol, reference compound]
time after which CBD release plateaued ([5]; GLPs CBD:OA:GLP 2:1:1, OA as SA, simulated saliva): 6 h | CBD released after 24 h incubation ([5]; GLPs CBD:OA:GLP 2:1:1, OA as SA, simulated saliva (without simulated tissue), 37° C.): ≤ 25% | cannabinoid release from GLP in 1 minute [4]: do not release efficiently

CCCCCc1cc(O)c(C/C=C(\C)CCC=C(C)C)c(O)c1 [CBG, cannabigerol]
cannabinoid release from GLP in 1 minute [4]: do not release efficiently

CCCCCCCC/C=C\CCCCCCCC(N)=O [Oleamide, oleamide]
% oleamide Released ([6]; simulated saliva (no tissue), 1 hour): 2% | % oleamide Released ([6]; simulated saliva + tissue, 5 minutes): 34% | % oleamide Released ([6]; simulated saliva + tissue, 1 hour): 40% | oleamide release efficiency ([6]; simulated saliva and tissue, 5 minutes to 1 hour): 34-40%

CCCCCc1cc(O)c2c(c1)OC(C)(C)[C@@H]1CCC(C)=C[C@@H]21 [THC, tetrahydrocannabinol]
THC released in 1 minute ([4]; GLPs (THC:GLP 1:1) embedded in SEDDS mixture (lecithin/MCT/glycerin), simulated saliva with tissue): up to 53% | THC released in 1 minute ([4]; GLPs (THC:GLP 1:1) embedded in SEDDS mixture (lecithin/MCT/glycerin), simulated saliva without tissue): Up to 30% | THC released in 1 minute ([4]; GLPs (THC:GLP 1:1) embedded in glycerin, simulated saliva containing tissue): Up to 30%

CC(C)=CCC/C(C)=C/CO [Geraniol]
concentration that inhibited in vitro growth (H. pylori): 2 mg/L | growth inhibition (S. cerevisiae): inhibit the growth | growth inhibition (C. albicans): inhibit the growth

C=CC(C)(O)CCC=C(C)CCC=C(C)C (stereo not shown) [Nerolidol]
CBD-SA-RA micelle size (nm) ([7]; RA TRITON X100 20 % w/w): 661 nm | CBD-SA-RA micelle size (nm) ([7]; without RA): 1260 nm | Stable CBD o/w emulsion ([1]; CBD-SA emulsion without RA): No | Stable CBD o/w emulsion [1, 10]: Yes | total CBD release at 24 hours ([5]; SA plus TRITON X-100 as RA, simulated saliva + tissue at 37° C.): 37% | course of CBD release with SA and TRITON X-100 as RA ([5]; simulated saliva + tissue at 37° C.): did not lead to CBD release in the first 6 hours

TRITON ™ X-100
Stable CBD-OA-RA o/w emulsion [1]: Yes | Stable CBD-OA-RA o/w emulsion ([1]; listed as TRITON™ X-100): form stable micelles | effect of RA on sustained THC release from GLP-THC-UDA [8]: did not improve sustained release from 1 to 6 h; also recorded: yielded high THC release at the 24 hour time point | Physical State of THC-UDA-RA mixture at room temperature [9]: mixture of oil and solid UDA | Physical State of THC-UDA-RA mixture at room temperature ([9]; listed as TRITONTM X-100): Solid | fold increase of CBD release compared to GLP-CBD-OA control sample ([5]; GLP-CBD-OA-RA, simulated saliva with tissue): 1.7-2.0 fold | effect of RA on sustained CBD release from GLP-CBD-OA ([5]; simulated saliva with tissue, 1 to 6 hours): improvement of sustained release from 1 to 6 hours | HLB [2]: 13.5 | Maximum solubility in OA [3]: 20% w/w | Maximum solubility in UDA [3]: 37.5% w/w

TWEEN 80
Stable CBD-OA-RA o/w emulsion [1]: No | HLB [2]: 15 | Maximum solubility in OA [3]: 25% w/w

CCCCCCCC(=O)O [Octanoic acid]
CBD-SA-RA micelle size (nm) ([7]; without RA): 379 nm | Stable CBD o/w emulsion ([1]; CBD-SA emulsion without RA): No | Stable CBD o/w emulsion [1, 10]: Yes
